The assay has as its target T1, α5β3γ2 receptor (Homo sapiens, UniProt P18507+P31644).
T1 construct: expressed in transfected cells; host or cells: HEK-293 (stably transfected)
Kind of assay: Cell level screening: whole cell patch clamp, inverse agonist efficacy. Format: cell-based. To be noted: for inverse agonism efficacy of the compound/α5IA inverse agonism efficacy: ratio to α5IA, compound 100 nM; for inhibition at 0.001 µM: Con. 1 nM; for inhibition at 0.01 µM: Con. 10 nM; for inhibition at 0.05 µM: Con. 50 nM; for inhibition at 1 µM: Con. 1000 nM. The procedure: The inventors used electrophysiological methods to assay the inverse agonist efficacy of the substance to be tested. The detailed procedures are as follows: (1) Different subunits of GABAA receptors were expressed in human embryonic kidney cells 293 (HEK293). The cells were cultured in a culture medium and used as a cell model for screening potential analgesics. The α, β and γ subunits are necessary to form complete functional GABAA receptors. In this example, the inventor has established the following cell model: (a) α5 subunit (protein sequence is GenBank accession number: NP_001158509), β3 subunit (protein sequence is GenBank accession number: NP_068712) and γ2 subunit (protein sequence is GenBank accession number: NP_944494) were expressed in HEK-293 cell lines at the same time, which formed the complete functional GABAA receptors. (2) Cells were stably transfected HEK-293 cells expressing α5β3γ2 receptor, which were labeled by green fluorescent protein (GFP). Cells were grown in 10 cm dishes. The cells were passaged after reaching 80-90% confluence. During passaging, the culture medium was removed and discarded, 3 mL DMEM medium (Gibco™) was added to the dishes, the dishes were shaken slightly, and DMEM was removed and discarded. 3 mL Trypsin (Trypsin-EDTA 0.05%, Gibco™) was added and cells were digested at 37° C. for 3 minutes. Then 3 mL complete growth medium (DMEM+10% horse serum (Gibco™)) was added and the cells at the bottom of the culture dishes were dispersed. The cell suspension were transferred to a 15 mL centrifugal tube (Corning®) and then centrifuged at 200 g for 3 minutes. The supernatant was discarded, 4 mL complete growth medium was added, and the cells were resuspended by gently blowing. The cell suspension was diluted by 1:5 or 1:10 for subculturing. The cell suspension was diluted by 1:12 for electrophysiology experiment, which are added to the 24 well plate (Corning®) which has a glass slide pre-treated with poly-D-lysine. The cells were adhered to the slide before the experiment was conducted. The cells were maintained in culture for no more than 24 hours before use. (3) Compound concentration: for screening, all compounds were diluted to a final concentration of 100 nM. GABA was diluted at the concentration of 0.05-0.1 μM. The compounds were at the concentration of 1 nM, 10 nM, 50 nM, 100 nM and 1000 nM in dose-inverse agonism efficacy (%) experiment. The whole cell patch clamp technique was used in electrophysiology experiments. The extracellular solution (ECS) contained: 150 mM NaCl, 5 mM KCl, 2.5 mM CaCl2, 1 mM MgCl2, 10 mM HEPES and 10 mM glucose (pH 7.4); Patch electrodes were filled with an intracellular solution containing: 140 mM KCl, 5 mM EGTA, 10 mM HEPES (adjusted to pH 7.4 with KOH and to 320-330 mOsm with water). The currents were recorded by an EPC-10 amplifier and the PatchMaster software (HEKA). Patch electrodes with a resistance of 5-6 MΩ were pulled from borosilicate glass (Sutter). The diluted compounds were perfused by OCTAFLOWII system. GFP positive and independently growing cells were selected for recording. During recording, the membrane voltage was clamped at −60 mV. During experiment, the cells were firstly perfused with ECS for 20 seconds. When the baseline reached to a stable state, cells were then perfused with GABA solution. Then the current induced by GABA can be detected. After about 20-40 seconds, the current was stable. ECS was switched to compounds solution and the effects of the compounds were detected. At last, the perfusion solution was switched to ECS. The experiment was finished when the post-baseline returned to the pre-baseline before compounds perfusion. Only the data whose pre-baseline and post-baseline are at almost the same level were used for analysis. GABA was diluted at the concentration of 0.05-0.1 μM in ECS. Then, compounds were diluted at the desired concentration in GABA ECS. (4) Currents were analyzed with the PatchMaster (HEKA) software. […]
For orientation: In patch-clamp work, channel activity is measured electrically.

[1] abbreviates: HEK293, compound 100 nM, GABA 0.05-0.1 μM, HEK293 α5β3γ2, clamped at −60 mV, (Ipost-Ipre)*100/Ipre, read-out: inverse agonism efficacy(%).
The mark [2] stands for this setting: dose-efficacy, single replicates, read-out: Inverse agonism-Efficacy.
[3] abbreviates: dose-efficacy, Con. 100 nM, single replicates, read-out: Inverse agonism-Efficacy.

Where two headings read alike, the source gives them in different places.

T1 sequence (P31644 32-462): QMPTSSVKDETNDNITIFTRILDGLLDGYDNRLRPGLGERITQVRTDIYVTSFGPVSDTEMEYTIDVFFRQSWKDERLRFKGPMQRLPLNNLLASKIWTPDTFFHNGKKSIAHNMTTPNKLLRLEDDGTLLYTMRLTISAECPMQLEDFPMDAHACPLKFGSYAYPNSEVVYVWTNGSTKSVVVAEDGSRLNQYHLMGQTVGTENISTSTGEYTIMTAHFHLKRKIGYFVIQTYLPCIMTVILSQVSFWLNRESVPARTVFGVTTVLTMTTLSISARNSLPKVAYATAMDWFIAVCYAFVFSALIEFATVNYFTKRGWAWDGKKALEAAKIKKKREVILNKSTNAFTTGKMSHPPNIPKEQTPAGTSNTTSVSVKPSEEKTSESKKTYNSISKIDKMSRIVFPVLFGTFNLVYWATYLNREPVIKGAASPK
T1 sequence (P28472 26-473 isoform P28472-2 partner limits assumed): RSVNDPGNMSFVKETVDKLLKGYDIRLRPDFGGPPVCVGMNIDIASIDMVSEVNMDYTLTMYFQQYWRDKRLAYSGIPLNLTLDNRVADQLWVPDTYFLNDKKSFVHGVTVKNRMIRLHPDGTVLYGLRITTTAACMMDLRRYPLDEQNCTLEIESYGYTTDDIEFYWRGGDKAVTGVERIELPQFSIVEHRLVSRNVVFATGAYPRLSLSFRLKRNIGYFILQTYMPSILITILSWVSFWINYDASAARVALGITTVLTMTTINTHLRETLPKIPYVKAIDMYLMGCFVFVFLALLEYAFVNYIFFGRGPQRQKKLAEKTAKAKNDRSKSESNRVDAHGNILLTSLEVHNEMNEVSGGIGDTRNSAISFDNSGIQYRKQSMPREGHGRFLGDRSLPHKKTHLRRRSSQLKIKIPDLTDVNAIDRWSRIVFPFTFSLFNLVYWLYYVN
T1 sequence (P18507 40-475): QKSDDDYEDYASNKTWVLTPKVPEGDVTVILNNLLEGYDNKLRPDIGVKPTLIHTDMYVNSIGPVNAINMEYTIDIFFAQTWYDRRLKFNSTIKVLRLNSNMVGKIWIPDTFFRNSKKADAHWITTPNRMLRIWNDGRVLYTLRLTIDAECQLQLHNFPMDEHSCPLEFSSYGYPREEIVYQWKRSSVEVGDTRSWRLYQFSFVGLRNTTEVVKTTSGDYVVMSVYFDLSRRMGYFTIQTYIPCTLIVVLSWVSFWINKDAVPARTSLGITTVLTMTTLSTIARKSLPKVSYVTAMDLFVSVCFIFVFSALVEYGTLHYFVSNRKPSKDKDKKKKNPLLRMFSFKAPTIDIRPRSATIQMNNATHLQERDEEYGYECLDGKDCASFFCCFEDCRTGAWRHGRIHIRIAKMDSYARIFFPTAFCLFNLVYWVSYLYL

As to `C[C@H](CO)NC(=O)c1ccc(COc2nn3c(-c4ccsc4)nnc3c3ccccc23)nc1` [Compound 60, (R)—N-(1-hydroxypropan-2-yl)-6-(((3-(thiophen-3-yl)-[1,2,4]triazolo[3,4-a]phthalazin-6-yl)oxy)methyl)nicotinamide], the “inverse agonism efficacy of the compound/α5IA inverse agonism efficacy” value (shortened to “inverse agonism efficacy”) is 1.447. Moreover, under setting [1], the inhibition at 0.1 µM is 32.6%.

`Cn1cc(NC(=O)c2ccc(COc3nn4c(-c5cc(CO)on5)nnc4c4ccccc34)nc2)cn1` [Compound 37, 6-(((3-(5-(hydroxymethyl)isoxazol-3-yl)-[1,2,4]triazolo[3,4-a]phthalazin-6-yl)oxy)methyl)-N-(1-methyl-1H-pyrazol-4-yl)nicotinamide]: the “inverse agonism efficacy” value was found to be 1.419. The inhibition at 0.1 µM under setting [1] is 32%.

Regarding `Cc1nc(COc2nn3c(-c4cc(CO)on4)nnc3c3ccccc23)ccc1C(=O)N[C@H](C)CO` [Compound 61, (R)-6-(((3-(5-(hydroxymethyl)isoxazol-3-yl)-[1,2,4]triazolo[3,4-a]phthalazin-6-yl)oxy)methyl)-N-(1-hydroxypropan-2-yl)-2-methylnicotinamide], the “inverse agonism efficacy” value is 2.047. In addition, under setting [1], the inhibition at 0.1 µM worked out at 46.2%.

As for `Cc1nc(-c2nnc3c4ccccc4c(OCc4ccc(C(=O)N[C@H](C)CO)cc4C#N)nn23)no1` [Compound 31, (R)-3-cyano-N-(1-hydroxypropan-2-yl)-4-(((3-(5-methyl-1,2,4-oxadiazol-3-yl)-[1,2,4]triazolo[3,4-a]phthalazin-6-yl)oxy)methyl)benzamide], the “inverse agonism efficacy” value was 2.1179. Also, under setting [1], the inhibition at 0.1 µM amounted to 47.8%.

Turning to `C[C@H](CO)NC(=O)c1ccc(COc2nn3c(-c4ccoc4)nnc3c3ccccc23)nc1` [Compound 59, (R)-6-(((3-(furan-3-yl)-[1,2,4]triazolo[3,4-a]phthalazin-6-yl)oxy)methyl)-N-(1-hydroxypropan-2-yl)nicotinamide], the “inverse agonism efficacy” value was found to be 1.73. Also, the inhibition at 0.1 µM under setting [1] is 39%.

In the case of `Cc1cc(-c2nnc3c4ccccc4c(OCc4ccc(C(=O)N(C)C)cn4)nn23)no1` [Compound 06, N,N-dimethyl-6-(((3-(5-methylisoxazol-3-yl)-[1,2,4]triazolo[3,4-a]phthalazin-6-yl)oxy)methyl)nicotinamide], the “inverse agonism efficacy” value was 1.596. Besides, the inhibition at 0.1 µM under setting [1] came out at 36%. Besides, under setting [2], the inhibition at 0.001 µM was found to be 10%, the inhibition at 0.01 µM came out at 17%, the inhibition at 0.05 µM was 23.1% and the inhibition at 1 µM was 32.3%. Moreover, the inhibition at 0.1 µM under setting [3] turned out to be 26%.

As for `O=C(NN1CCOCC1)c1ccc(COc2nn3c(-c4cc(CO)on4)nnc3c3ccccc23)nc1` [Compound 33, 6-(((3-(5-(hydroxymethyl)isoxazol-3-yl)-[1,2,4]triazolo[3,4-a]phthalazin-6-yl)oxy)methyl)-N-morpholinonicotinamide], the “inverse agonism efficacy” value was determined as 1.463. For the same molecule, the inhibition at 0.1 µM under setting [1] worked out at 33%.

As to `O=C(NN1CCS(=O)(=O)CC1)c1ccc(COc2nn3c(-c4cc(CO)on4)nnc3c3ccccc23)nc1` [Compound 54, N-(1,1-dioxidothiomorpholino)-6-(((3-(5-(hydroxymethyl)isoxazol-3-yl)-[1,2,4]triazolo[3,4-a]phthalazin-6-yl)oxy)methyl)nicotinamide], the “inverse agonism efficacy” value is 1.508. Also, the inhibition at 0.1 µM under setting [1] was 34%.

Turning to `Cc1cc(-c2nnc3c4ccccc4c(OCc4cn(C)nn4)nn23)no1` [α5IA, reference compound], the inhibition at 0.1 µM under setting [1] came to 22.6%. Also, under setting [2], the inhibition at 0.001 µM stood at 4.2%, the inhibition at 0.01 µM turned out to be 9.4%, the inhibition at 0.05 µM is 22.1% and the inhibition at 1 µM was determined as 20.7%. Besides, the inhibition at 0.1 µM under setting [3] came out at 19%.

Turning to `CN(C)C(=O)c1ccc(COc2nn3c(-c4cc(CO)on4)nnc3c3ccccc23)nc1` [Compound 45, 6-(((3-(5-(hydroxymethyl)isoxazol-3-yl)-[1,2,4]triazolo[3,4-a]phthalazin-6-yl)oxy)methyl)-N,N-dimethylnicotinamide], the “inverse agonism efficacy” value turned out to be 1.339. The inhibition at 0.1 µM under setting [1] stood at 30.2%.

`Cc1cc(-c2nnc3c4ccccc4c(OCc4ccc(C(=O)N[C@H](C)CO)cc4Br)nn23)no1` [Compound 32, (R)-3-bromo-N-(1-hydroxypropan-2-yl)-4-(((3-(5-methylisoxazol-3-yl)-[1,2,4]triazolo[3,4-a]phthalazin-6-yl)oxy)methyl)benzamide]: the “inverse agonism efficacy” value was 1.739. Also, the inhibition at 0.1 µM under setting [1] was determined as 39.2%.

In the case of `O=C(c1ccc(COc2nn3c(-c4cc(CO)on4)nnc3c3ccccc23)nc1)N1CCOCC1` [Compound 41, (6-(((3-(5-(hydroxymethyl)isoxazol-3-yl)-[1,2,4]triazolo[3,4-a]phthalazin-6-yl)oxy)methyl)pyridin-3-yl)(morpholino)methanone], the “inverse agonism efficacy” value is 1.867. For the same molecule, the inhibition at 0.1 µM under setting [1] amounted to 42.1%.

For `NNC(=O)c1ccc(COc2nn3c(-c4cc(CO)on4)nnc3c3ccccc23)nc1` [Compound 51, 6-(((3-(5-(hydroxymethyl)isoxazol-3-yl)-[1,2,4]triazolo[3,4-a]phthalazin-6-yl)oxy)methyl)nicotinohydrazide], the “inverse agonism efficacy” value is on record as 1.351. In addition, under setting [1], the inhibition at 0.1 µM was determined as 30.5%.

Values taken from patent US11220503B2, “Phthalazine derivatives, preparation method, pharmaceutical composition and usage thereof” (Shanghai SIMR Biotech Co., Ltd., priority 2015, dated 2022).
